Experimental data published in patent US9328374B2, “Selective culture medium and method for detecting carbapenem-resistant bacteria in a test sample” (Institut National de la Sante et de la Recherche Medicale …, priority 2011, dated 2016).
Like-named read-outs stand apart in the source and are kept apart here.

What was measured:
Experiment in all cases: MIC of imipenem, ertapenem and meropenem
K. pneumoniae = type: cell-based, Klebsiella pneumoniae; details: Klebsiella pneumoniae, read-out: MIC
P. rettgeri = type: cell-based, Providencia rettgeri
P. stuartii = type: cell-based, Providencia stuartii
E. aerogenes = type: cell-based, Enterobacter aerogenes; details: Klebsiella aerogenes, read-out: MIC

Q: With C[C@@H](O)[C@H]1C(=O)N2C(C(=O)O)=C(S[C@@H]3CN[C@H](C(=O)Nc4cccc(C(=O)O)c4)C3)[C@H](C)[C@H]12 [ETP, ertapenem] as the compound, how does the MIC (K. pneumoniae; K. pneumoniae LIE, KPC-2 + TEM-2 + OXA-9) read?
A: The MIC was over 32 µg/mL.

Q: And the MIC (K. pneumoniae; K. pneumoniae LOU, OXA-48)?
A: Its MIC is 16 µg/mL.

Q: And the MIC (K. pneumoniae; K. pneumoniae MAD (VIM-1 + CTX-M-3))?
A: The MIC was 0.5 µg/mL.

Q: What about the MIC (K. pneumoniae; K. pneumoniae MAD, VIM-1+ CTX-M-3) of the same compound?
A: Its MIC is 0.5 µg/mL.

Q: And the MIC (K. pneumoniae; K. pneumoniae MEK (CTX-M-15 + SHV-11))?
A: Its MIC is over 32 µg/mL.

Q: And the MIC (K. pneumoniae; K. pneumoniae MEK, CTX-M-15 + SHV-11, non-carbapenemase producer, porin deficiency)?
A: Its MIC is over 32 µg/mL.

Q: What about the MIC (K. pneumoniae; K. pneumoniae MUS (KPC-2 + TEM-1 + SHV-11 + SHV-12)) of the same compound?
A: The MIC was 4 µg/mL.

Q: And the MIC (K. pneumoniae; K. pneumoniae MUS, KPC-2 + TEM-1 + SHV-11 + SHV-12)?
A: The MIC was 4 µg/mL.

Q: What about the MIC (K. pneumoniae; K. pneumoniae OM2 (NDM-1 + TEM-1 + CTX-M-3 + SHV-11 + OXA-1)) of the same compound?
A: The MIC was 8 µg/mL.

Q: What about the MIC (K. pneumoniae; K. pneumoniae OM2, NDM-1 + TEM-1 + CTX-M-3 + SHV-11 + OXA-1) of the same compound?
A: The MIC was 8 µg/mL.

Q: What about the MIC (K. pneumoniae; K. pneumoniae OM4, NDM-1 + TEM-1 + CTX-M-15 + SHV-12 + OXA-9) of the same compound?
A: Its MIC is over 32 µg/mL.

Q: What about the MIC (K. pneumoniae; K. pneumoniae OM8, NDM-1 + TEM-1 + CTX-M-15 + SHV-11 + OXA-1) of the same compound?
A: Its MIC is over 32 µg/mL.

Q: What about the MIC (K. pneumoniae; K. pneumoniae OM11, OXA-48 + TEM-1 + CTX-M-14) of the same compound?
A: Its MIC is 0.75 µg/mL.

Q: And the MIC (K. pneumoniae; K. pneumoniae OM13, NDM-1 + TEM-1 + CTX-M-15 + SHV-28 + OXA-1 + OXA-9)?
A: Its MIC is 4 µg/mL.

Q: And the MIC (K. pneumoniae; K. pneumoniae OM14, OXA-48 + TEM-1)?
A: Its MIC is 1 µg/mL.

Q: And the MIC (K. pneumoniae; K. pneumoniae OM15, NDM-1 + CTX-M-15 + SHV-130 + OXA-1)?
A: Its MIC is 12 µg/mL.

Q: And the MIC (K. pneumoniae; K. pneumoniae OM16, NDM-1 + CTX-M-15 + OXA-1 + OXA-181)?
A: Its MIC is over 32 µg/mL.

Q: What about the MIC (K. pneumoniae; K. pneumoniae OM19, NDM-1 + CTX-M-15 + SHV-12 + OXA-1) of the same compound?
A: The MIC was 24 µg/mL.

Q: And the MIC (K. pneumoniae; K. pneumoniae OMA419 (NDM-1 + OXA-1))?
A: The MIC was 6 µg/mL.

Q: What about the MIC (K. pneumoniae; K. pneumoniae OMA419, NDM-1 + OXA-1) of the same compound?
A: Its MIC is 6 µg/mL.

Q: And the MIC (K. pneumoniae; K. pneumoniae OMA601, NDM-1 + CTX-M-15 + OXA-1 + OXA-9)?
A: The MIC was over 32 µg/mL.

Q: What about the MIC (K. pneumoniae; K. pneumoniae OMA (OXA-181 + CTX-M-15 + OXA-1)) of the same compound?
A: The MIC was 2 µg/mL.

Q: And the MIC (K. pneumoniae; K. pneumoniae OMA, OXA-181 + CTXM-15 + OXA-1)?
A: The MIC was 2 µg/mL.

Q: And the MIC (K. pneumoniae; K. pneumoniae RAM (OXA-48))?
A: Its MIC is 4 µg/mL.

Q: And the MIC (K. pneumoniae; K. pneumoniae RAM, OXA-48)?
A: Its MIC is 4 µg/mL.

Q: What about the MIC (K. pneumoniae; K. pneumoniae ROB (OXA-48 + CTX-M-15 + TEM-1)) of the same compound?
A: Its MIC is 3 µg/mL.

Q: And the MIC (K. pneumoniae; K. pneumoniae ROU (OXA-48 + CTX-M-15))?
A: Its MIC is 1.5 µg/mL.

Q: What about the MIC (K. pneumoniae; K. pneumoniae ROU, OXA-48 + CTX-M-15) of the same compound?
A: The MIC was 1.5 µg/mL.

Q: What about the MIC (K. pneumoniae; K. pneumoniae SCO (OXA-48)) of the same compound?
A: The MIC was 0.75 µg/mL.

Q: What about the MIC (K. pneumoniae; K. pneumoniae SCO, OXA-48) of the same compound?
A: Its MIC is 0.75 µg/mL.

Q: And the MIC (K. pneumoniae; K. pneumoniae SHI (CTX-M-15 + TEM-1 + SHV-1))?
A: The MIC was 1 µg/mL.

Q: What about the MIC (K. pneumoniae; K. pneumoniae SHI, CTX-M-15 + TEM-1 + SHV-11, non-carbapenemase producer, porin deficiency) of the same compound?
A: The MIC was 1 µg/mL.

Q: And the MIC (K. pneumoniae; K. pneumoniae SHM (CTX-M-15 + TEM-1 + SHV-11))?
A: Its MIC is over 32 µg/mL.

Q: What about the MIC (K. pneumoniae; K. pneumoniae SHM, CTX-M-15 + TEM-1 + SHV-11, non-carbapenemase producer, porin deficiency) of the same compound?
A: Its MIC is over 32 µg/mL.

Q: And the MIC (K. pneumoniae; K. pneumoniae SIC (OXA-48 + CTX-M-15 + SHV-28))?
A: Its MIC is 1 µg/mL.

Q: And the MIC (K. pneumoniae; K. pneumoniae SIC, OXA-48 + CTX-M-15 + SHV-28)?
A: Its MIC is 1 µg/mL.

Q: And the MIC (K. pneumoniae; K. pneumoniae SIM (CTX-M-15 + TEM-1 + SHV-1))?
A: Its MIC is over 32 µg/mL.

Q: What about the MIC (K. pneumoniae; K. pneumoniae SIM, CTX-M-15 + TEM-1 + SHV-1, non-carbapenemase producer, porin deficiency) of the same compound?
A: Its MIC is over 32 µg/mL.

Q: And the MIC (K. pneumoniae; K. pneumoniae TAW, IMP-8 + SHV-12)?
A: The MIC was 0.5 µg/mL.

Q: And the MIC (K. pneumoniae; K. pneumoniae TIK, OXA-48)?
A: Its MIC is 2 µg/mL.

Q: What about the MIC (K. pneumoniae; K. pneumoniae TUR (IMP-1)) of the same compound?
A: The MIC was 2 µg/mL.

Q: And the MIC (K. pneumoniae; K. pneumoniae TUR, IMP-1)?
A: Its MIC is 2 µg/mL.

Q: And the MIC (K. pneumoniae; K. pneumoniae TWA, IMP-8)?
A: The MIC was 1 µg/mL.

Q: And the MIC (K. pneumoniae; K. pneumoniae UK (NDM-1 + CTX-M-15 + CMY-4 + OXA-1))?
A: Its MIC is over 32 µg/mL.

Q: What about the MIC (K. pneumoniae; K. pneumoniae UK, NDM-1 + CTX-M-15 + CMY-4 + OXA-1) of the same compound?
A: Its MIC is over 32 µg/mL.

Q: What about the MIC (K. pneumoniae; K. pneumoniae VER, OXA-48 + TEM-1 + CTX-M-15 + SHV-11) of the same compound?
A: Its MIC is 2 µg/mL.

Q: And the MIC (K. pneumoniae; K. pneumoniae VSG (OXA-48 + TEM-1 + CTX-M-15 + OXA-1))?
A: Its MIC is 3 µg/mL.

Q: What about the MIC (K. pneumoniae; K. pneumoniae VSG, OXA-48 + TEM-1 + CTX-M-15 + OXA-1) of the same compound?
A: The MIC was 3 µg/mL.

Q: And the MIC (K. pneumoniae; K. pneumoniae YC, KPC-2 + TEM-1 + SHV-11 + SHV-12 + OXA-9)?
A: Its MIC is 24 µg/mL.

Q: And the MIC (K. pneumoniae; strain K. pneumoniae 7725, SHV-1, non-carbapenemase producer)?
A: Its MIC is 0.006 µg/mL.

Q: And the MIC (K. pneumoniae; strain K. pneumoniae 648236, SHV-2a, non-carbapenemase producer)?
A: The MIC was 2 µg/mL.

Q: What about the MIC (K. pneumoniae; strain K. pneumoniae ALE, CTX-M-15 + SHV-1, non-carbapenemase producer) of the same compound?
A: The MIC was over 32 µg/mL.

Q: And the MIC (K. pneumoniae; strain K. pneumoniae AMS, OXA-48 + TEM-1 + CTX-M-15 + OXA-1)?
A: The MIC was 2 µg/mL.

Q: And the MIC (K. pneumoniae; strain K. pneumoniae BAJ, OXA-48 + TEM-1 + CTX-M-15 + SHV-28)?
A: The MIC was 1.5 µg/mL.

Q: What about the MIC (K. pneumoniae; strain K. pneumoniae BED, CTX-M-15 + TEM-1 + SHV-11, non-carbapenemase producer) of the same compound?
A: Its MIC is over 32 µg/mL.

Q: And the MIC (K. pneumoniae; strain K. pneumoniae BEL, OXA-48)?
A: The MIC was 4 µg/mL.

Q: What about the MIC (K. pneumoniae; strain K. pneumoniae BEN, OXA-48 + TEM-1 + CTX-M-15 + SHV-28) of the same compound?
A: Its MIC is 1 µg/mL.

Q: And the MIC (K. pneumoniae; strain K. pneumoniae BER, SHV-28 + TEM-1, non-carbapenemase producer)?
A: The MIC was 4 µg/mL.

Q: And the MIC (K. pneumoniae; strain K. pneumoniae ELK, OXA-48 + TEM-1 + CTX-M-15 + SHV-11)?
A: The MIC was 3 µg/mL.

Q: What about the MIC (K. pneumoniae; strain K. pneumoniae HOL, OXA-181 + CTX-M-15) of the same compound?
A: The MIC was 4 µg/mL.

Q: What about the MIC (K. pneumoniae; strain K. pneumoniae MUS, KPC-2 + TEM-1 + SHV-11 + SHV-12) of the same compound?
A: The MIC was 4 µg/mL.

Q: And the MIC (K. pneumoniae; strain K. pneumoniae OM2, NDM-1 + TEM-1 + CTX-M-3 + SHV-11 + OXA-1)?
A: The MIC was 8 µg/mL.

Q: What about the MIC (K. pneumoniae; strain K. pneumoniae OMA419, NDM-1 + OXA-1) of the same compound?
A: The MIC was 6 µg/mL.

Q: What about the MIC (K. pneumoniae; strain K. pneumoniae OMA, OXA-181 + CTXM-15 + OXA-1) of the same compound?
A: The MIC was 2 µg/mL.

Q: And the MIC (K. pneumoniae; strain K. pneumoniae ROU, OXA-48 + CTX-M-15)?
A: The MIC was 1.5 µg/mL.

Q: And the MIC (K. pneumoniae; strain K. pneumoniae SCO, OXA-48)?
A: The MIC was 0.75 µg/mL.

Q: What about the MIC (K. pneumoniae; strain K. pneumoniae SIC, OXA-48 + CTX-M-15 + SHV-28) of the same compound?
A: Its MIC is 1 µg/mL.

Q: What about the MIC (K. pneumoniae; strain K. pneumoniae VSG, OXA-48 + TEM-1 + CTX-M-15 + OXA-1) of the same compound?
A: The MIC was 3 µg/mL.

Q: What about the MIC (P. rettgeri; P. rettgeri RAP, OXA-181 + OXA-1) of the same compound?
A: Its MIC is 1 µg/mL.

Q: What about the MIC (P. rettgeri; Providencia rettgeri, P. rettgeri RAP (OXA-181 + OXA-1), read-out: MIC) of the same compound?
A: The MIC was 1 µg/mL.

Q: And the MIC (P. rettgeri; strain P. rettgeri RAP, OXA-181 + OXA-1)?
A: Its MIC is 1 µg/mL.

Q: And the MIC (P. stuartii; P. stuartii PS1 (NDM-1 + CMY-6 + OXA-1))?
A: Its MIC is 0.38 µg/mL.

Q: And the MIC (P. stuartii; P. stuartii PS1, NDM-1 + CMY-6 + OXA-1)?
A: Its MIC is 0.38 µg/mL.

Q: What about the MIC (P. stuartii; Providencia stuartii, P. stuartii NDM (NDM-1 + OXA-1 + CMY-6), read-out: MIC) of the same compound?
A: Its MIC is 0.38 µg/mL.

Q: What about the MIC (P. stuartii; strain P. stuartii PS1, NDM-1 + CMY-6 + OXA-1) of the same compound?
A: The MIC was 0.38 µg/mL.

Q: And the MIC (E. aerogenes; E. aerogenes 1009, TEM-24, non-carbapenemase producer)?
A: Its MIC is 0.12 µg/mL.

Q: What about the MIC (E. aerogenes; E. aerogenes 1085 (TEM-24)) of the same compound?
A: The MIC was 0.19 µg/mL.

Q: And the MIC (E. aerogenes; E. aerogenes 1085, TEM-24, non-carbapenemase producer)?
A: Its MIC is 0.19 µg/mL.

Q: What about the MIC (E. aerogenes; strain E. aerogenes 1085, TEM-24, non-carbapenemase producer) of the same compound?
A: The MIC was 0.19 µg/mL.
